Measurements: patent US20250275959A1, “COMPOUNDS AND METHODS OF THEIR USE” (LEXICON PHARMACEUTICALS, INC., priority 2024, published 2025)

How the values were obtained:
hACSL5 [1] = target: T1, hACSL5 (Homo sapiens (Human), UniProt Q9ULC5); assay: Cell-based assay (CBA) with B12FA in hACSL5-transfected Expi293F / FlpIn TRex293 cells; details: hACSL5-expressing cells
How it was run: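 hACSL5-expressing Expi293F or tetracycline-induced FlpIn TRex293 cells, serum- and glucose-starved 1 h, then treated 3 h with serially diluted compound plus 20 µM B12FA. After fixation, 630/520 nm emission ratio (ex 485 nm) gave % inhibition versus no-inhibitor and 10 µM compound/non-induced controls; IC50 by Hill fit.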
Target sequence in this assay (Q9ULC5 whole entry): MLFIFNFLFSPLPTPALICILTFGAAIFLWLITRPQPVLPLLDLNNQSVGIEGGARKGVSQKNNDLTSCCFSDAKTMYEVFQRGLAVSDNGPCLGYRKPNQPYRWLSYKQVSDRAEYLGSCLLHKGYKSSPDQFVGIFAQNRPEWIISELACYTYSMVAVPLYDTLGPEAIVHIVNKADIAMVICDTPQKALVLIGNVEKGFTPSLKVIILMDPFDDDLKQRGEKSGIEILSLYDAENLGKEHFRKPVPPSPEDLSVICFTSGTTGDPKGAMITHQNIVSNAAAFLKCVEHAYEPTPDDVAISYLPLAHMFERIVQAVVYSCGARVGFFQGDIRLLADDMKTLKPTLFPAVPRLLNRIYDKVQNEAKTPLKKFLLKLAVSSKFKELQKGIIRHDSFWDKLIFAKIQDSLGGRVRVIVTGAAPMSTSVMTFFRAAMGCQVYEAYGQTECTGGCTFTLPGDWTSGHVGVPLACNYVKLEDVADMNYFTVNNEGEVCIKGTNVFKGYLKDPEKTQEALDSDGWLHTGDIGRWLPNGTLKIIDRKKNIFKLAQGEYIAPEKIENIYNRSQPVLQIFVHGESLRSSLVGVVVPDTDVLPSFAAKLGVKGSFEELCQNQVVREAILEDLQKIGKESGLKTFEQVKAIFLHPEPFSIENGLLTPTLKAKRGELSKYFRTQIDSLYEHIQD

hACSL5 [2] = target: T1, hACSL5; assay: Human ACSL5 coupled enzyme Amplex Red assay; type: biochemical; details: read-out: hACSL5 IC50
How it was run: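 Amplex Red coupled readout: 1 mM ATP, 25 μM oleate and 30 μM CoA were added to compound-preincubated enzyme (20 nM, residues 33-683, insect-cell expressed, His-tagged) with coupling peroxidase and acyl-CoA oxidase at pH 7.6. Signal was read at 535/590 nm after 10 minutes at 25° C., and Hill fits yielded half-maximal and maximal inhibition.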
Target sequence in this assay (Q9ULC5 33-683): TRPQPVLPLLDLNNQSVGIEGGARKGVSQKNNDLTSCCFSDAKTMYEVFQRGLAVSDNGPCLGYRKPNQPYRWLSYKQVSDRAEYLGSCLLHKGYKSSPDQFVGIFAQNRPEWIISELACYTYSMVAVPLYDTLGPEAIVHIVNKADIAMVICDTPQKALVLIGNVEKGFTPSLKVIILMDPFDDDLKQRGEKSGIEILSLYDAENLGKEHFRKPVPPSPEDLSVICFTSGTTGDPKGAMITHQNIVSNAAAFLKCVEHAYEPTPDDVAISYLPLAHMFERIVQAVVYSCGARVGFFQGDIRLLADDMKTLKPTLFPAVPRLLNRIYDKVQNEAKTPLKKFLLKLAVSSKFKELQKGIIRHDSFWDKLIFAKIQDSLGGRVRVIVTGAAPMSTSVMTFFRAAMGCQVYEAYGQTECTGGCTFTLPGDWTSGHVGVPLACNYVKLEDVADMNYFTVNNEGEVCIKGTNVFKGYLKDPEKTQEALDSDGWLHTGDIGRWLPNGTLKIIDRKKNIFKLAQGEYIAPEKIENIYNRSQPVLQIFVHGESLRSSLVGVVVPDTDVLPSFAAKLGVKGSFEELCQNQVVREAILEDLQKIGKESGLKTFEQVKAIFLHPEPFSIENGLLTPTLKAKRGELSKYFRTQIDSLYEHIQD

| IC50 (hACSL5 [1]) [µM] | IC50 (hACSL5 [2]) [µM] | SMILES |
| --- | --- | --- |
| 0.1 to 0.5 | < 0.1 | CC[C@@H](Oc1ccc(C(=O)NS(=O)(=O)c2ccc(OCCN3CCCC3)nc2)c(F)c1F)c1ccc(OCC2CC2)cn1 [(R)-4-(1-(5-(cyclopropylmethoxy)pyridin-2-yl)propoxy)-2,3-difluoro-N-((6-(2-(pyrrolidin-1-yl)ethoxy)pyridin-3-yl)sulfonyl)benzamide] |
| > 0.5 | < 0.1 | CC[C@@H](Oc1ccc(C(=O)NS(=O)(=O)c2ccc(NC3CCN(C(C)C)CC3)nc2)c(F)c1F)c1ccc(OCC2CC2)cn1 [(R)-4-(1-(5-(cyclopropylmethoxy)pyridin-2-yl)propoxy)-2,3-difluoro-N-((6-((1-isopropylpiperidin-4-yl)amino)pyridin-3-yl)sulfonyl)benzamide] |
| 0.1 to 0.5 | < 0.1 | CC[C@@H](Oc1ccc(C(=O)NS(=O)(=O)c2ccc(OC3CCN(C(C)C)CC3)nc2)c(F)c1F)c1ccc(OCC2CC2)cn1 [(R)-4-(1-(5-(cyclopropylmethoxy)pyridin-2-yl)propoxy)-2,3-difluoro-N-((6-((1-isopropylpiperidin-4-yl)oxy)pyridin-3-yl)sulfonyl)benzamide] |
| > 0.5 | < 0.1 | CC[C@@H](Oc1ccc(C(=O)NS(=O)(=O)c2ccc(NC3CCN(C)CC3)nc2)c(F)c1F)c1ccc(OCC2CC2)cn1 [(R)-4-(1-(5-(cyclopropylmethoxy)pyridin-2-yl)propoxy)-2,3-difluoro-N-((6-((1-methylpiperidin-4-yl)amino)pyridin-3-yl)sulfonyl)benzamide] |
| > 0.5 | 0.1 to 0.5 | CC[C@@H](Oc1ccc(C(=O)NS(=O)(=O)N2CC3(CC(OC4CCN(C)CC4)C3)C2)c(F)c1F)c1ccc(OCC2CC2)cn1 [(R)-4-(1-(5-(cyclopropylmethoxy)pyridin-2-yl)propoxy)-2,3-difluoro-N-((6-((1-methylpiperidin-4-yl)oxy)-2-azaspiro[3.3]heptan-2-yl)sulfonyl)benzamide] |
| > 0.5 | < 0.1 | CC[C@@H](Oc1ccc(C(=O)NS(=O)(=O)c2ccc(OC3CCN(C)CC3)nn2)c(F)c1F)c1ccc(OCC2CC2)cn1 [(R)-4-(1-(5-(cyclopropylmethoxy)pyridin-2-yl)propoxy)-2,3-difluoro-N-((6-((1-methylpiperidin-4-yl)oxy)pyridazin-3-yl)sulfonyl)benzamide] |
| 0.1 to 0.5 | < 0.1 | CC[C@@H](Oc1ccc(C(=O)NS(=O)(=O)c2ccc(OC3CCN(C)CC3)nc2)c(F)c1F)c1ccc(OCC2CC2)cn1 [(R)-4-(1-(5-(cyclopropylmethoxy)pyridin-2-yl)propoxy)-2,3-difluoro-N-((6-((1-methylpiperidin-4-yl)oxy)pyridin-3-yl)sulfonyl)benzamide] |
| > 0.5 | < 0.1 | CC[C@@H](Oc1ccc(C(=O)NS(=O)(=O)c2ccc(NCCN3CCCC3)nc2)c(F)c1F)c1ccc(OCC2CC2)cn1 [(R)-4-(1-(5-(cyclopropylmethoxy)pyridin-2-yl)propoxy)-2,3-difluoro-N-((6-((2-(pyrrolidin-1-yl)ethyl)amino)pyridin-3-yl)sulfonyl)benzamide] |
| 0.1 to 0.5 | 0.1 to 0.5 | CC[C@@H](Oc1ccc(C(=O)NS(=O)(=O)C(C)(C)CN(C)C)c(F)c1F)c1ccc(OCC2CC2)cn1 [(R)-4-(1-(5-(cyclopropylmethoxy)pyridin-2-yl)propoxy)-N-((1-(dimethylamino)-2-methylpropan-2-yl)sulfonyl)-2,3-difluorobenzamide] |
| 0.1 to 0.5 | < 0.1 | CC[C@@H](Oc1ccc(C(=O)NS(=O)(=O)c2ccc(OCCN(C)C)cc2)cc1C(F)(F)F)c1ccc(OCC2CC2)cn1 [(R)-4-(1-(5-(cyclopropylmethoxy)pyridin-2-yl)propoxy)-N-((4-(2-(dimethylamino)ethoxy)phenyl)sulfonyl)-3-(trifluoromethyl)benzamide] |
| 0.1 to 0.5 | < 0.1 | CC[C@@H](Oc1ccc(C(=O)NS(=O)(=O)N2CCC(OCCN(C)C)CC2)c(F)c1F)c1ccc(OCC2CC2)cn1 [(R)-4-(1-(5-(cyclopropylmethoxy)pyridin-2-yl)propoxy)-N-((4-(2-(dimethylamino)ethoxy)piperidin-1-yl)sulfonyl)-2,3-difluorobenzamide] |
| 0.1 to 0.5 | < 0.1 | CC[C@@H](Oc1ccc(C(=O)NS(=O)(=O)c2ccc(OC3CCN(CC(F)F)CC3)cc2)c(F)c1F)c1ccc(OCC2CC2)cn1 [(R)-4-(1-(5-(cyclopropylmethoxy)pyridin-2-yl)propoxy)-N-((4-((1-(2,2-difluoroethyl)piperidin-4-yl)oxy)phenyl)sulfonyl)-2,3-difluorobenzamide] |
| < 0.1 | < 0.1 | CC[C@@H](Oc1ccc(C(=O)NS(=O)(=O)c2ccc(OC3CCN(CC4CC4)CC3)cc2)c(F)c1F)c1ccc(OCC2CC2)cn1 [(R)-4-(1-(5-(cyclopropylmethoxy)pyridin-2-yl)propoxy)-N-((4-((1-(cyclopropylmethyl)piperidin-4-yl)oxy)phenyl)sulfonyl)-2,3-difluorobenzamide] |
| 0.1 to 0.5 | < 0.1 | CC[C@@H](Oc1ccc(C(=O)NS(=O)(=O)N2CCC(OC3CCN(CC4CC4)CC3)CC2)c(F)c1F)c1ccc(OCC2CC2)cn1 [(R)-4-(1-(5-(cyclopropylmethoxy)pyridin-2-yl)propoxy)-N-((4-((1-(cyclopropylmethyl)piperidin-4-yl)oxy)piperidin-1-yl)sulfonyl)-2,3-difluorobenzamide] |
| < 0.1 | < 0.1 | CC[C@@H](Oc1ccc(C(=O)NS(=O)(=O)c2ccc(OC3CCN(CC)CC3)cc2)c(F)c1F)c1ccc(OCC2CC2)cn1 [(R)-4-(1-(5-(cyclopropylmethoxy)pyridin-2-yl)propoxy)-N-((4-((1-ethylpiperidin-4-yl)oxy)phenyl)sulfonyl)-2,3-difluorobenzamide] |
| < 0.1 | < 0.1 | CC[C@@H](Oc1ccc(C(=O)NS(=O)(=O)N2CCC(OC3CCN(C)CC3)CC2)cc1C(F)(F)F)c1ccc(OCC2CC2)cn1 [(R)-4-(1-(5-(cyclopropylmethoxy)pyridin-2-yl)propoxy)-N-((4-((1-methylpiperidin-4-yl)oxy)piperidin-1-yl)sulfonyl)-3-(trifluoromethyl)benzamide] |
| > 0.5 | < 0.1 | CC[C@@H](Oc1ccc(C(=O)NS(=O)(=O)N2CCC(CN3CCN(CC)CC3)CC2)c(F)c1F)c1ccc(OCC2CC2)cn1 [(R)-4-(1-(5-(cyclopropylmethoxy)pyridin-2-yl)propoxy)-N-((4-((4-ethylpiperazin-1-yl)methyl)piperidin-1-yl)sulfonyl)-2,3-difluorobenzamide] |
| 0.1 to 0.5 | < 0.1 | CC[C@@H](Oc1ccc(C(=O)NS(=O)(=O)N2CCN(CC3CC3)CC2)c(F)c1F)c1ccc(OCC2CC2)cn1 [(R)-4-(1-(5-(cyclopropylmethoxy)pyridin-2-yl)propoxy)-N-((4-(cyclopropylmethyl)piperazin-1-yl)sulfonyl)-2,3-difluorobenzamide] |
| < 0.1 | < 0.1 | CC[C@@H](Oc1ccc(C(=O)NS(=O)(=O)N2CCN(C3CC3)CC2)c(F)c1F)c1ccc(OCC2CC2)cn1 [(R)-4-(1-(5-(cyclopropylmethoxy)pyridin-2-yl)propoxy)-N-((4-cyclopropylpiperazin-1-yl)sulfonyl)-2,3-difluorobenzamide] |
| < 0.1 | < 0.1 | CC[C@@H](Oc1ccc(C(=O)NS(=O)(=O)N2CCN(CC)CC2)c(F)c1F)c1ccc(OCC2CC2)cn1 [(R)-4-(1-(5-(cyclopropylmethoxy)pyridin-2-yl)propoxy)-N-((4-ethylpiperazin-1-yl)sulfonyl)-2,3-difluorobenzamide] |
| < 0.1 | < 0.1 | CC[C@@H](Oc1ccc(C(=O)NS(=O)(=O)N2CCN(CC)CC2)cc1C(F)(F)F)c1ccc(OCC2CC2)cn1 [(R)-4-(1-(5-(cyclopropylmethoxy)pyridin-2-yl)propoxy)-N-((4-ethylpiperazin-1-yl)sulfonyl)-3-(trifluoromethyl)benzamide] |
| < 0.1 | < 0.1 | CC[C@@H](Oc1ccc(C(=O)NS(=O)(=O)N2CCN(C)CC2)cc1C(F)(F)F)c1ccc(OCC2CC2)cn1 [(R)-4-(1-(5-(cyclopropylmethoxy)pyridin-2-yl)propoxy)-N-((4-methylpiperazin-1-yl)sulfonyl)-3-(trifluoromethyl)benzamide] |
| > 0.5 | 0.1 to 0.5 | CC[C@@H](Oc1ccc(C(=O)NS(=O)(=O)N2CC3(CC(OCCN(C)C)C3)C2)c(F)c1F)c1ccc(OCC2CC2)cn1 [(R)-4-(1-(5-(cyclopropylmethoxy)pyridin-2-yl)propoxy)-N-((6-(2-(dimethylamino)ethoxy)-2-azaspiro[3.3]heptan-2-yl)sulfonyl)-2,3-difluorobenzamide] |
| > 0.5 | < 0.1 | CC[C@@H](Oc1ccc(C(=O)NS(=O)(=O)c2ccc(CN3CCN(CC)CC3)nc2)c(F)c1F)c1ccc(OCC2CC2)cn1 [(R)-4-(1-(5-(cyclopropylmethoxy)pyridin-2-yl)propoxy)-N-((6-((4-ethylpiperazin-1-yl)methyl)pyridin-3-yl)sulfonyl)-2,3-difluorobenzamide] |
| < 0.1 | < 0.1 | CC[C@@H](Oc1ccc(C(=O)NS(=O)(=O)C(C)(C)CN(C)C)c(F)c1F)c1ccc(Oc2ccccn2)cn1 [(R)-N-((1-(dimethylamino)-2-methylpropan-2-yl)sulfonyl)-2,3-difluoro-4-(1-(5-(pyridin-2-yloxy)pyridin-2-yl)propoxy)benzamide] |
| > 0.5 | < 0.1 | CC[C@@H](Oc1ccc(C(=O)NS(=O)(=O)c2ccc(OCCn3ccnc3)cc2)c(F)c1F)c1ccc(OCCOC)cn1 [(R)-N-((4-(2-(1H-imidazol-1-yl)ethoxy)phenyl)sulfonyl)-2,3-difluoro-4-(1-(5-(2-methoxyethoxy)pyridin-2-yl)propoxy)benzamide] |
